Measurements published in patent US20250013155A1, “MICROFLUIDIC POROUS MEMBRANE ELECTRICAL CELL-SUBSTRATE IMPEDANCE SENSING” (THE GOVERNING COUNCIL OF THE UNIVERSITY OF TORONTO, priority 2023, published 2025).

Experiments:
[1] = system: confluent monolayer of HUVECs; test: PM-ECIS resistance (4 kHz) response to EGTA and thrombin barrier disruption, 250/500/750 μm electrodes; type: cell-based, human; settings: all electrode sizes
Text: The PM-ECIS devices were connected to a 24-channel multiplexer, which in turn connected to a phase-sensitive lock-in amplifier (LIA) and computer (FIG. 9D), The overall circuit for the ECIS system follows the set up described by Giaever and Keese. The LIA acts to both generate an alternating current signal, and receive signal measured across the cell layer. An alternating current signal of 1 V rms was generated at a specified frequency, connected to a 1 MΩ resistor to provide a 1 μA current. Cell-free devices were filled with culture medium and measurements taken over at least 12 hours to establish baseline impedance. The voltage drop across the device containing cells grown on electrodes was detected and measured by the LIA, which allows for small AC signals to be resolved in high noise systems. A cell-free baseline was established beforehand using cell-free devices filled with culture medium and impedance measurements taken over the course of at least 12 hours prior to cell seeding. LIA outputs including voltage drop and phase angle were used to calculate and plot impedance and resistance values.
Cells were incubated in 5 mM EGTA (Sigma-Aldrich, E3889) diluted in Endothelial Growth Medium at 37° C. and 5% CO2 for 2 hours, with ECIS measurements taken every 15 min. After 2 hours, EGTA was removed and replaced with fresh growth medium. For transient disruption of the endothelial barrier, cells were stimulated with 1 U/mL of thrombin from bovine plasma (Sigma-Aldrich, T6634) diluted in Endothelial Growth Medium at 37° C. and 5% CO2 for 2 hours, with measurements taken every 5 min.
To assess the effect of electrode size in PM-ECIS response to barrier disruption, a confluent monolayer of HUVECs was subjected to 2-hour treatment with EGTA. EGTA disrupts cell barriers by chelating Ca2+ ions to destabilize tight junctions. […]

HUVEC monolayers = test: PM-ECIS resistance of HUVEC monolayers on 6-well inserts after thrombin barrier disruption; type: cell-based, human; settings: 1 U/mL thrombin in fresh media, HUVECs, 6-well PM-ECIS
Protocol: A lock-in amplifier (LIA) (SR850, Stanford Research Systems) was used to simultaneously generate AC current and read impedance data from the devices. An Arduino-operated multiplexer was used to switch between devices. Using a 1 V rms input voltage, in series with a 1 MΩ resistor, electrodes (typ. 500 μm dia.) were stimulated at frequencies of 400, 4000 and 40000 Hz, and any voltage drops (at the locked frequencies) across the electrodes were sampled with the LIA every 15 or 60 mins. Prior to use, the devices without cells were left in media for at least 12 hours to record a stable cell-free impedance baseline for each electrode at each frequency.
Cell barrier resistance (Rb), capacitance (Cm), and basal barrier beneath the cells (a) were modeled and calculated using ECIS Core software (Applied Biophysics, v1.2.215.0 PC) using the raw impedance values taken at 400, 4000, and 40000 Hz.

Compound: thrombin: thrombin from bovine plasma (Sigma), used to disrupt cell-cell junctions
- change in resistance after thrombin treatment ([1]; 1 U/mL thrombin, 4 kHz): immediate drop in resistance
- time for resistances to return to or close to pre-treatment values ([1]; 1 U/mL thrombin): ≤ 120 min
- change in 4 kHz PM-ECIS resistance after addition of thrombin (HUVEC monolayers): acute resistance drop

Compound: O=C(O)CN(CCOCCOCCN(CC(=O)O)CC(=O)O)CC(=O)O [EGTA, ethylene glycol-bis(β-aminoethyl ether)-N,N,N′,N′-tetraacetic acid]
- time to drop in resistance after treatment ([1]; 5 mM EGTA, 4 kHz): ≤ 15 min
